From US8623859B2, “Bradykinin B1 antagonists” (Evotec AG, priority 2008, dated 2014)
Where a name gives a salt, the structure may show the parent alone.

Target: T1, human B1 (Homo sapiens, UniProt P46663)
T1 construct: host or cells: CHO-K1
T1 sequence (P46663 1-353): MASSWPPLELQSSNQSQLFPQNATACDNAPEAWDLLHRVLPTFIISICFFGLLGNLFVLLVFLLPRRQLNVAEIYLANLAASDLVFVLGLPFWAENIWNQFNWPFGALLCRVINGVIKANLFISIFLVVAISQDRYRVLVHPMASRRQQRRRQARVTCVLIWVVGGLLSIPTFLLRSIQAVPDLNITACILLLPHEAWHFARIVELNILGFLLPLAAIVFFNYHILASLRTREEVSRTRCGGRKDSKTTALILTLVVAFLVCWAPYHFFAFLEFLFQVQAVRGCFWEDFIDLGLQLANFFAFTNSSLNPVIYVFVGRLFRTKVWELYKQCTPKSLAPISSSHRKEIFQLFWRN
Test: Calcium flux assay for Bradykinin B1 antagonist, CHO-K1 cell line expressing human B1
Assay type: cell-based
Settings: CHO-K1 cells expressing human B1, agonist Lys-(Des-Arg)-Bradykinin, read-out: Potency (IC50 value against human B1)
Method in brief: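 CHO-K1 cells expressing human B1, loaded with 5 μM Fluo-4AM (2 h, 37° C) in HEPES buffer pH 7.4 with probenecid and 0.1% BSA, were preincubated 30 min at 25° C with compound (8 concentrations, triplicate, 1% DMSO) before B1 agonist addition. Ca2+ fluorescence monitored at 538 nm; background-normalized integrated values plotted against log antagonist concentration.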

Row | SMILES | IC50 [nM]
1 | COc1cc(C)c(S(=O)(=O)N(C)Cc2cc(C(=O)N(C)Cc3ccc(C4=NCCCN4)cc3)co2)c(C)c1 [Ex 10, 5-({[(4-methoxy-2,6-dimethylphenyl)sulfonyl](methyl)amino}methyl)-N-methyl-N-[4-(1,4,5,6-tetrahydropyrimidin-2-yl)benzyl]furan-3-carboxamide] | 10 to 100
2 | COc1cc(C)c(S(=O)(=O)N(Cc2cc(C(=O)NCc3cc(CN4CCCC4)ccc3F)co2)C2CC2)c(C)c1 [Ex 153, 5-({Cyclopropyl[(4-methoxy-2,6-dimethylphenyl)sulfonyl]amino}methyl)-N-[2-fluoro-5-(pyrrolidin-1-ylmethyl)benzyl]furan-3-carboxamide trifluoroacetate] | 100 to 1000
3 | COc1cc(C)c(S(=O)(=O)N(C)Cc2cc(C(=O)NCc3cccc(CN4CCCC4)c3)co2)c(C)c1 [Ex 11, 5-({[(4-methoxy-2,6-dimethylphenyl)sulfonyl](methyl)amino}methyl)-N-[3-(pyrrolidin-1-ylmethyl)benzyl]furan-3-carboxamide] | 100 to 1000
4 | COc1cc(C)c(S(=O)(=O)N(Cc2nc(C(=O)N3CCN(CCc4ccccn4)CC3)co2)C2CC2)c(C)c1 [Ex 228, N-Cyclopropyl-4-methoxy-2,6-dimethyl-N-[(4-{[4-(2-pyridin-2-ylethyl)piperazin-1-yl]carbonyl}-1,3-oxazol-2-yl)methyl]benzenesulfonamide trifluoroacetate] | 10 to 100
5 | COc1cc(C)c(S(=O)(=O)N(C)Cc2cc(C(=O)NCCc3ccc(C4=NC(C)CN4)cc3)co2)c(C)c1 (centres unmarked) [Ex 7, 5-({[(4-methoxy-2,6-dimethylphenyl)sulfonyl](methyl)amino}methyl)-N-{2-[4-(4-methyl-4,5-dihydro-1H-imidazol-2-yl)phenyl]ethyl}furan-3-carboxamide] | < 10
6 | COc1cc(C)c(S(=O)(=O)N(C)Cc2nnc(C(=O)N(C)Cc3nc(CN4CCCC4)cs3)o2)c(C)c1 [Ex 286, 5-({[(4-Methoxy-2,6-dimethylphenyl)sulfonyl](methyl)amino}methyl)-N-methyl-N-{[4-(pyrrolidin-1-ylmethyl)-1,3-thiazol-2-yl]methyl}-1,3,4-oxadiazole-2-carboxamide] | 100 to 1000
7 | Cc1cccc(Cl)c1S(=O)(=O)N(Cc1nc(C(=O)N(C)Cc2ccc(CN3CCCC3)cc2)co1)C1CC1 [Ex 220, 2-({[(2-Chloro-6-methylphenyl)sulfonyl](cyclopropyl)amino}methyl)-N-methyl-N-[4-(pyrrolidin-1-ylmethyl)benzyl]-1,3-oxazole-4-carboxamide trifluoroacetate] | 100 to 1000
8 | COc1cc(C)c(S(=O)(=O)N(C)Cc2cc(C(=O)NCc3ccc(CN4CCCCC4C)cc3)co2)c(C)c1 (centres unmarked) [Ex 99, 5-({[(4-Methoxy-2,6-dimethylphenyl)sulfonyl](methyl)amino}methyl)-N-{4-[(2-methylpiperidin-1-yl)methyl]benzyl}furan-3-carboxamide trifluoroacetate] | 100 to 1000
9 | COc1cc(C)c(S(=O)(=O)N(Cc2nc(C(=O)N3CCC(CCN4CCCC4)CC3)co2)C2CC2)c(C)c1 [Ex 193, N-Cyclopropyl-4-methoxy-2,6-dimethyl-N-[(4-{[4-(2-pyrrolidin-1-ylethyl)piperidin-1-yl]carbonyl}-1,3-oxazol-2-yl)methyl]benzenesulfonamide trifluoroacetate] | < 10
10 | COc1cc(C)c(S(=O)(=O)N(C)Cc2cc(C(=O)N(C)Cc3ccc(CN4CCC(NC(C)=O)C4)cc3)co2)c(C)c1 (centres unmarked) [Ex 132, N-(4-{[3-(Acetylamino)pyrrolidin-1-yl]methyl}benzyl)-5-({[(4-methoxy-2,6-dimethylphenyl)sulfonyl](methyl)amino}methyl)-N-methylfuran-3-carboxamide] | 100 to 1000
11 | COc1cc(C)c(S(=O)(=O)N(Cc2cc(C(=O)N(C)Cc3ccc(CN4CC(O)C4)cc3)co2)C2CC2)c(C)c1 [Ex 148, 5-({Cyclopropyl[(4-methoxy-2,6-dimethylphenyl)sulfonyl]amino}methyl)-N-{4-[(3-hydroxyazetidin-1-yl)methyl]benzyl}-N-methylfuran-3-carboxamide] | 10 to 100
12 | COc1cc(C)c(S(=O)(=O)N(Cc2cc(C(=O)N(C)Cc3ccc(C4=NCCN4)cc3)co2)c2ccccc2)c(C)c1 [Ex 50, N-[4-(4,5-dihydro-1H-imidazol-2-yl)benzyl]-5-({[(4-methoxy-2,6-dimethylphenyl)sulfonyl] (phenyl)amino}methyl)-N-methylfuran-3-carboxamide] | 100 to 1000
13 | COc1cc(C)c(S(=O)(=O)N(C)Cc2nnc(C(=O)N3CCN(CC4CCN(C(C)C)CC4)CC3)o2)c(C)c1 [Ex 264, 4-Methoxy-N,2,6-trimethyl-N-({5-[(4-{[1-(1-methylethyl)piperidin-4-yl]methyl}piperazin-1-yl)carbonyl]-1,3,4-oxadiazol-2-yl}methyl)benzenesulfonamide trifluoroacetate] | 100 to 1000
14 | COc1cc(C)c(S(=O)(=O)N(C)Cc2cc(C(=O)NCc3ccc(CN4CCCC4)c(F)c3)co2)c(C)c1 [Ex 152, N-[3-Fluoro-4-(pyrrolidin-1-ylmethyl)benzyl]-5-({[(4-methoxy-2,6-dimethylphenyl)sulfonyl](methyl)amino}methyl)furan-3-carboxamide trifluoroacetate] | 100 to 1000

Continued, values first:

Row | IC50 [nM] | SMILES
15 | < 10 | COc1cc(C)c(S(=O)(=O)N(C)Cc2nc(C(=O)NCc3cccc(CN4CCCC4)c3)co2)c(C)c1 [Ex 74, 2-({[(4-Methoxy-2,6-dimethylphenyl)sulfonyl](methyl)amino}methyl)-N-[3-(pyrrolidin-1-ylmethyl)benzyl]-1,3-oxazole-4-carboxamide]
16 | 100 to 1000 | COc1cc(C)c(S(=O)(=O)N(C)Cc2nc(C(=O)N3CCN(Cc4cccnc4)CC3)no2)c(C)c1 [Ex 323, 4-Methoxy-N,2,6-trimethyl-N-[(3-{[4-(pyridin-3-ylmethyl)piperazin-1-yl]carbonyl}-1,2,4-oxadiazol-5-yl)methyl]benzenesulfonamide]
17 | < 10 | COc1cc(C)c(S(=O)(=O)N(Cc2nc(C(=O)N3CCN(Cc4ccncc4)CC3)co2)C2CC2)c(C)c1 [Ex 162, N-Cyclopropyl-4-methoxy-2,6-dimethyl-N-[(4-{[4-(pyridin-4-ylmethyl)piperazin-1-yl]carbonyl}-1,3-oxazol-2-yl)methyl]benzenesulfonamide trifluoroacetate]
18 | 10 to 100 | COc1cc(C)c(S(=O)(=O)N(Cc2nc(C(=O)N3CCN(Cc4c(Cl)cncc4Cl)CC3)co2)C2CC2)c(C)c1 [Ex 233, N-Cyclopropyl-N-{[4-({4-[(3,5-dichloropyridin-4-yl)methyl]piperazin-1-yl}carbonyl)-1,3-oxazol-2-yl]methyl}-4-methoxy-2,6-dimethylbenzenesulfonamide trifluoroacetate]
19 | 10 to 100 | COc1cc(C)c(S(=O)(=O)N(Cc2cc(C(=O)NCCc3ccc(C4=NCCN4)cc3)co2)CC2CC2)c(C)c1 [Ex 49, 5-({(Cyclopropylmethyl)[(4-methoxy-2,6-dimethylphenyl)sulfonyl]amino}methyl)-N-{2-[4-(4,5-dihydro-1H-imidazol-2-yl)phenyl]ethyl}furan-3-carboxamide]
20 | < 10 | COc1cc(C)c(S(=O)(=O)N(Cc2nc(C(=O)N(C)Cc3ccc(CN4CCC(O)CC4)cc3)co2)C2CC2)c(C)c1 [Ex 181, 2-({Cyclopropyl[(4-methoxy-2,6-dimethylphenyl)sulfonyl]amino}methyl)-N-{4-[(4-hydroxypiperidin-1-yl)methyl]benzyl}-N-methyl-1,3-oxazole-4-carboxamide]
21 | 100 to 1000 | COc1cc(C)c(S(=O)(=O)N(C)Cc2cc(C(=O)NCCc3ccc(Nc4ccnc(N)n4)cc3)co2)c(C)c1 [Ex 45, N-(2-{4-[(2-aminopyrimidin-4-yl)amino]phenyl}ethyl)-5-({[(4-methoxy-2,6-dimethylphenyl)sulfonyl](methyl)amino}methyl)furan-3-carboxamide]
22 | 100 to 1000 | COc1cc(C)c(S(=O)(=O)N(C)Cc2nnc(C(=O)N3CCN(CCCN4CCCC4)CC3)s2)c(C)c1 [Ex 327, 4-Methoxy-N,2,6-trimethyl-N-[(5-{[4-(3-pyrrolidin-1-ylpropyl)piperazin-1-yl]carbonyl}-1,3,4-thiadiazol-2-yl)methyl]benzenesulfonamide]
23 | 10 to 100 | COc1cc(C)c(S(=O)(=O)N(Cc2nc(C(=O)N3CCN(Cc4c[nH]nc4C)CC3)co2)C2CC2)c(C)c1 [Ex 255, N-Cyclopropyl-4-methoxy-2,6-dimethyl-N-{[4-({4-[(3-methyl-1H-pyrazol-4-yl)methyl]piperazin-1-yl}carbonyl)-1,3-oxazol-2-yl]methyl}benzenesulfonamide]
24 | 100 to 1000 | CN(Cc1cc(C(=O)N2CCN(CCc3ccncc3)CC2)co1)S(=O)(=O)c1c(Cl)cccc1Cl [Ex 18, 2,6-dichloro-N-methyl-N-[(4-{[4-(2-pyridin-4-ylethyl)piperazin-1-yl]carbonyl}furan-2-yl)methyl]benzenesulfonamide]
25 | 100 to 1000 | Cc1cc(S(=O)(=O)N(Cc2nc(C(=O)N(C)CCc3ccc(C4=NCCN4)cc3)co2)C2CC2)c(C)cc1Cl [Ex 217, 2-({[(4-Chloro-2,5-dimethylphenyl)sulfonyl](cyclopropyl)amino}methyl)-N-{2-[4-(4,5-dihydro-1H-imidazol-2-yl)phenyl]ethyl}-N-methyl-1,3-oxazole-4-carboxamide trifluoroacetate]
26 | 100 to 1000 | COc1cc(C)c(S(=O)(=O)N(C)Cc2cc(C(=O)N3CCN(CCc4ccncc4)CC3)co2)c(C)c1 [Ex 33, 4-methoxy-N,2,6-trimethyl-N-[(4-{[4-(2-pyridin-4-ylethyl)piperazin-1-yl]carbonyl}furan-2-yl)methyl]benzenesulfonamide]
